Molecular target: ABCB1 (P-glycoprotein) (Homo sapiens, UniProt P08183)
Experiment: ABCB1 ATPase stimulation in plasma membrane vesicles
Type: biochemical

ABCB1 (P-glycoprotein), sequence (P08183 whole entry): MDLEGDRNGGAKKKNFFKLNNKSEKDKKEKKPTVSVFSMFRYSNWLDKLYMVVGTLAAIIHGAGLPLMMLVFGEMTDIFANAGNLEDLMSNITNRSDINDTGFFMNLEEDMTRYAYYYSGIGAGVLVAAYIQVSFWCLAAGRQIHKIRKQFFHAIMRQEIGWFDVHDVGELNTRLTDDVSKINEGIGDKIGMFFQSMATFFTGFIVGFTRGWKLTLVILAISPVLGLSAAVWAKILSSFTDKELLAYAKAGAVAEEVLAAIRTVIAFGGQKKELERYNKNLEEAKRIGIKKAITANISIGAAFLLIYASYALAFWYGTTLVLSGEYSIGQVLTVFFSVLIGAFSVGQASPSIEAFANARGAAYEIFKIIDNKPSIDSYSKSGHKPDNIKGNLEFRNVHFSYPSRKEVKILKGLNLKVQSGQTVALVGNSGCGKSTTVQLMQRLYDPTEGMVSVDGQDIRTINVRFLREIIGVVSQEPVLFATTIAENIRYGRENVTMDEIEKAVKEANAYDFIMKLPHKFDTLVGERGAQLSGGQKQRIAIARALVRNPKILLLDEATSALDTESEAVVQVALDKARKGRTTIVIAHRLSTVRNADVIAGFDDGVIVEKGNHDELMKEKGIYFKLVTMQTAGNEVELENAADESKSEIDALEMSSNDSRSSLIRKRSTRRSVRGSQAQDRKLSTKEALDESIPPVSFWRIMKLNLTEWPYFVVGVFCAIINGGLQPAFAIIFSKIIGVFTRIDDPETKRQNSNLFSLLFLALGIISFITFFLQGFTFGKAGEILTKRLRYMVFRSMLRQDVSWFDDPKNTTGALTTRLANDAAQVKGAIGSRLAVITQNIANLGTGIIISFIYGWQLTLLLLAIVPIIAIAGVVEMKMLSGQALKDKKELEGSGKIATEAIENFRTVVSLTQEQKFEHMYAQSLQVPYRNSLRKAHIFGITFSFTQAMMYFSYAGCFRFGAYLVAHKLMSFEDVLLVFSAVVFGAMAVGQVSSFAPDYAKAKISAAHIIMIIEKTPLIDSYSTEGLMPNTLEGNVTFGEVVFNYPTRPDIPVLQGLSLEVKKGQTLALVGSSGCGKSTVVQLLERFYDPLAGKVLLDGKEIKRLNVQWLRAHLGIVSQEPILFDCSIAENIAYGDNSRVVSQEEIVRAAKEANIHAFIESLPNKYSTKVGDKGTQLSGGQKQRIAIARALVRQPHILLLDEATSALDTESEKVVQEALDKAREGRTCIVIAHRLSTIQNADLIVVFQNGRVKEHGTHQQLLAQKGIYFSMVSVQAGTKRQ

EC50: > 100 µM
SMILES: [La+3].c1cnc2c(c1)ccc1cccnc12.c1cnc2c(c1)ccc1cccnc12.c1cnc2c(c1)ccc1cccnc12 [KP772, [tris(1,10-phenanthroline)lanthanum(III)] trithiocyanate]
